Source: article PMC5487684, “Safety, Pharmacokinetics, and Antiviral Activity of a Novel HIV Antiviral, ABX464, in Treatment-Naive HIV-Infected Subjects in a Phase 2 Randomized, Controlled Study” (Antimicrobial Agents and Chemotherapy, 2017)

Tested on: HIV-infected subjects
Assay: Safety and tolerability (TEAEs, ECG, laboratory) after repeated oral administration, phase 2a study
Assay type: in vivo, human
Description: Participants were assigned to one of eight groups; each group (with one exception) included eight subjects receiving either ABX464 (n = 6) or the corresponding placebo (n = 2) according to a randomization code. […] In the present study with HIV-infected subjects, the first dose administered was 25 mg, given once or 3 times a day over a 2- to 3-week period. This initial dose was therefore considered safe for assessment of the safety and tolerability of ABX464 after repeated oral administrations in subjects infected by HIV and determination of the potential effect on the HIV viral load.
The final dosing protocol for each of the eight groups was as follows: group 1, 25 mg every 3 days for 2 to 3 weeks under fasted conditions; group 2, 25 mg once a day (q.d.) for 2 to 3 weeks under fasted conditions; group 3, 50 mg once a day for 2 to 3 weeks under fasted conditions; group 4, 50 mg 3 times a day (t.i.d.) for 4 weeks under fed conditions; group 5, 75 mg once a day for 2 weeks under fed conditions; group 6, 100 mg once a day for 2 to 3 weeks under fasted conditions; group 7, 150 mg every 3 days for 2 to 3 weeks under fed conditions; and group 8, 150 mg once a day for 2 weeks under fed conditions. Per the study protocol, the treatment period was defined as 2 weeks. […] The decision to proceed to the next highest dose was determined by the data and safety monitoring board after review of the laboratory safety data, vital signs, ECGs, and adverse event reports from the group receiving the current dose after 2 weeks of treatment.
Subjects were hospitalized from the day prior to the first dose to at least the morning of day 2. They were orally dosed with 25-mg capsules of ABX464 with 240 ml water under fed or fasted conditions. According to the group, subjects were dosed with 1, 2, 3, 4, or 6 capsules to deliver 25 mg, 50 mg, 75 mg, 100 mg, or 150 mg product, respectively, or the same number of placebo capsules.
Safety assessments and laboratory tests were carried out according to the schedules described in Table S4 for groups dosed every day, every 3 days, and 3 times a day. Follow-up visits were scheduled for 7 days after the last dose and subsequently once every week in order to assess the elimination of the main ABX464 metabolite and to assess the viral load. Follow-up visits were terminated when the virus load was within 0.5 log of the baseline value or after 3 follow-up visits, whichever came first. Prior to the statistical analyses, AEs were coded using the Medical Dictionary for Regulatory Activities (MedDRA dictionary; last available version) in order to be tabulated by system organ class (SOC) and preferred term (PT). The AEs were analyzed according to the treatment emergence phase from the first study drug administration on day 1 up to 48 h after the last study drug administration. The number and percentage of subjects with at least one TEAE were tabulated by SOC and PT for each group and dose. The number of occurrences of TEAEs was also analyzed in the same way by SOC and PT for each group and dose, by grade of severity for each group and dose, and by level of causality to the study drug for each group and dose.

[1] = Group 2 (n = 6), 25 mg q.d., fasted, Moderate
[2] = Group 3 (n = 7), 50 mg q.d., fasted, Mild
[3] = Group 3 (n = 7), 50 mg q.d., fasted, Moderate
[4] = Group 4 (n = 7), 50 mg t.i.d., fed, Mild
[5] = Group 4 (n = 7), 50 mg t.i.d., fed, Moderate

## FC(F)(F)Oc1ccc(Nc2ccc3cccc(Cl)c3n2)cc1 [ABX464]
[1]
  Subjects experiencing at least one TEAE: Total: 0 (0.0) No. (%)
  Subjects experiencing at least one TEAE: Upper abdominal pain: 0 (0.0) No. (%)
  Subjects experiencing at least one TEAE: Vomiting: 0 (0.0) No. (%)
[2]
  Subjects experiencing at least one TEAE: Abdominal pain: 0 (0.0) No. (%)
  Subjects experiencing at least one TEAE: Arthralgia: 1 (14.3) No. (%)
  Subjects experiencing at least one TEAE: Back pain: 0 (0.0) No. (%)
  Subjects experiencing at least one TEAE: Diarrhea: 0 (0.0) No. (%)
  Subjects experiencing at least one TEAE: Flank pain: 0 (0.0) No. (%)
  Subjects experiencing at least one TEAE: Gastrointestinal disorders: 1 (14.3) No. (%)
  Subjects experiencing at least one TEAE: Headache: 1 (14.3) No. (%)
  Subjects experiencing at least one TEAE: Injury, poisoning, and procedural complications: 0 (0.0) No. (%)
  Subjects experiencing at least one TEAE: Musculoskeletal and connective tissue disorders: 1 (14.3) No. (%)
  Subjects experiencing at least one TEAE: Nausea: 1 (14.3) No. (%)
  Subjects experiencing at least one TEAE: Neck pain: 0 (0.0) No. (%)
  Subjects experiencing at least one TEAE: Nervous system disorders: 1 (14.3) No. (%)
  Subjects experiencing at least one TEAE: Pain in extremity: 0 (0.0) No. (%)
  Subjects experiencing at least one TEAE: Sciatica, back pain: 0 (0.0) No. (%)
  Subjects experiencing at least one TEAE: Skin abrasion: 0 (0.0) No. (%)
  Subjects experiencing at least one TEAE: Total: 2 (28.6) No. (%)
  Subjects experiencing at least one TEAE: Upper abdominal pain: 0 (0.0) No. (%)
  Subjects experiencing at least one TEAE: Vomiting: 1 (14.3) No. (%)
[3]
  Subjects experiencing at least one TEAE: Abdominal pain: 0 (0.0) No. (%)
  Subjects experiencing at least one TEAE: Arthralgia: 0 (0.0) No. (%)
  Subjects experiencing at least one TEAE: Back pain: 0 (0.0) No. (%)
  Subjects experiencing at least one TEAE: Diarrhea: 0 (0.0) No. (%)
  Subjects experiencing at least one TEAE: Flank pain: 0 (0.0) No. (%)
  Subjects experiencing at least one TEAE: Headache: 1 (14.3) No. (%)
  Subjects experiencing at least one TEAE: Injury, poisoning, and procedural complications: 0 (0.0) No. (%)
  Subjects experiencing at least one TEAE: Musculoskeletal and connective tissue disorders: 0 (0.0) No. (%)
  Subjects experiencing at least one TEAE: Nausea: 0 (0.0) No. (%)
  Subjects experiencing at least one TEAE: Neck pain: 0 (0.0) No. (%)
  Subjects experiencing at least one TEAE: Nervous system disorders: 1 (14.3) No. (%)
  Subjects experiencing at least one TEAE: Pain in extremity: 0 (0.0) No. (%)
  Subjects experiencing at least one TEAE: Sciatica, back pain: 0 (0.0) No. (%)
  Subjects experiencing at least one TEAE: Skin abrasion: 0 (0.0) No. (%)
  Subjects experiencing at least one TEAE: Total: 1 (14.3) No. (%)
  Subjects experiencing at least one TEAE: Upper abdominal pain: 0 (0.0) No. (%)
  Subjects experiencing at least one TEAE: Vomiting: 0 (0.0) No. (%)
[4]
  Subjects experiencing at least one TEAE: Abdominal pain: 0 (0.0) No. (%)
  Subjects experiencing at least one TEAE: Arthralgia: 1 (14.3) No. (%)
  Subjects experiencing at least one TEAE: Back pain: 2 (28.6) No. (%)
  Subjects experiencing at least one TEAE: Diarrhea: 0 (0.0) No. (%)
  Subjects experiencing at least one TEAE: Flank pain: 0 (0.0) No. (%)
  Subjects experiencing at least one TEAE: Gastrointestinal disorders: 3 (42.9) No. (%)
  Subjects experiencing at least one TEAE: Headache: 2 (28.6) No. (%)
  Subjects experiencing at least one TEAE: Injury, poisoning, and procedural complications: 0 (0.0) No. (%)
  Subjects experiencing at least one TEAE: Musculoskeletal and connective tissue disorders: 3 (42.9) No. (%)
  Subjects experiencing at least one TEAE: Nausea: 0 (0.0) No. (%)
  Subjects experiencing at least one TEAE: Neck pain: 1 (14.3) No. (%)
  Subjects experiencing at least one TEAE: Nervous system disorders: 2 (28.6) No. (%)
  Subjects experiencing at least one TEAE: Pain in extremity: 1 (14.3) No. (%)
  Subjects experiencing at least one TEAE: Sciatica, back pain: 0 (0.0) No. (%)
  Subjects experiencing at least one TEAE: Skin abrasion: 0 (0.0) No. (%)
  Subjects experiencing at least one TEAE: Total: 7 (100.0) No. (%)
  Subjects experiencing at least one TEAE: Upper abdominal pain: 2 (28.6) No. (%)
  Subjects experiencing at least one TEAE: Vomiting: 1 (14.3) No. (%)
[5]
  Subjects experiencing at least one TEAE: Abdominal pain: 0 (0.0) No. (%)
  Subjects experiencing at least one TEAE: Arthralgia: 0 (0.0) No. (%)
  Subjects experiencing at least one TEAE: Back pain: 0 (0.0) No. (%)
  Subjects experiencing at least one TEAE: Diarrhea: 0 (0.0) No. (%)
  Subjects experiencing at least one TEAE: Flank pain: 0 (0.0) No. (%)
  Subjects experiencing at least one TEAE: Gastrointestinal disorders: 1 (14.3) No. (%)
  Subjects experiencing at least one TEAE: Headache: 0 (0.0) No. (%)
  Subjects experiencing at least one TEAE: Injury, poisoning, and procedural complications: 0 (0.0) No. (%)
  Subjects experiencing at least one TEAE: Musculoskeletal and connective tissue disorders: 0 (0.0) No. (%)
  Subjects experiencing at least one TEAE: Nausea: 0 (0.0) No. (%)
  Subjects experiencing at least one TEAE: Neck pain: 0 (0.0) No. (%)
  Subjects experiencing at least one TEAE: Nervous system disorders: 0 (0.0) No. (%)
  Subjects experiencing at least one TEAE: Pain in extremity: 0 (0.0) No. (%)
  Subjects experiencing at least one TEAE: Sciatica, back pain: 0 (0.0) No. (%)
  Subjects experiencing at least one TEAE: Skin abrasion: 0 (0.0) No. (%)
  Subjects experiencing at least one TEAE: Total: 1 (14.3) No. (%)
  Subjects experiencing at least one TEAE: Upper abdominal pain: 1 (14.3) No. (%)
  Subjects experiencing at least one TEAE: Vomiting: 0 (0.0) No. (%)
Group 5 (n = 6), 75 mg q.d., fed, Mild
  Subjects experiencing at least one TEAE: Abdominal pain: 0 (0.0) No. (%)
